From article PMC7613620, “Reaction hijacking of tyrosine tRNA synthetase as a whole-of-life-cycle antimalarial strategy” (Science (New York, N.Y.), 2022)

Tests used:
H1650 = H1650 cell viability (ATP content); format: cell-based; details: Homo sapiens, NCI-H1650, 72 h, read-out: H1650 IC50(72h)
Procedure: (§1) 574 H1650 is a human lung cancer derived ATG7-null cell line (49) that can be used to assess effects on targets
(§2) 576 adenocarcinoma; bronchoalveolar carcinoma). Other cells lines used are: H460 (NCI-H460; human lung;
(§3) 577 carcinoma; large cell lung cancer; ATCC: HTB-177); and HCT116 (human colon; colorectal carcinoma;
(§4) 578 ATCC: CCL-247; Lot : 5056139). Each of the cell lines was received from the American Type Culture
(§5) 579 Collection (ATCC) and passaged twice before freezing. Cells were cultured in the presence or absence of
(§6) 580 inhibitors and cell viability was assessed by comparing the ATP content in compound-treated wells with
(§7) 581 that in DMSO-treated wells as previously described (11). […]
(§8) 585 37°C humidified incubator as adherent semi-confluent monolayers in complete Dulbecco’s Modified Eagle
(§9) 586 Media (c-DMEM). DMEM (Gibco™, Thermo Fisher Scientific, Australia) was supplemented with 10%

P. falciparum (3D7) = P. falciparum (3D7) culture growth inhibition, 72 h; format: cell-based, Plasmodium falciparum; details: Plasmodium falciparum, 3D7, 72 h, read-out: Pf3D7 IC50(72h)
Procedure: (1 picture or pasted object on this page, not shown here)
553 Sigma-Aldrich) for 48-72 h. For drug pulse assays, tightly synchronized parasites (1-1.5% parasitemia,
554 0.2% final hematocrit) were added to the plates and incubated for 3 h. Drugs were removed and the
555 parasitemia assessed in the trophozoite stage of the next cycle.
557 Compounds were tested against a range of drug resistant field isolates and laboratory strains using a
558 modified [3H]-hypoxanthine incorporation assay, as previously reported (46). Field isolates 7G8, Cam3.1,
559 Dd2, K1, TM90C2B and NF54 were obtained from MR4 (www.beiresources.org).
561 Mammalian cell culture experiments
562 The HepG2 (Human hepatocyte carcinoma) cell line was procured from ATCC (American Type
563 Culture Collection, Manassas, USA; HB-8065) and viability assessed using Cell Titer-GLO luminescent
564 cell viability assay reagents (Promega, catalogue number: G7570) (47, 48). For the assay, 2000 cells/well
565 were plated in 384-well plates 24 h prior to the experiment and incubated at 37°C in a CO2 incubator. The
566 medium was removed and cells were treated with fresh medium containing either vehicle (0.5% DMSO)
567 or serially diluted test compounds or doxorubicin (1.3 nM to 25 µM) in a final volume of 50 µl/well and
568 further incubated for 72 h at 37°C in a CO2 incubator.
569 were treated with 5 µl of 1% Triton X-100 (final assay conc. 0.1%). Following incubation, 25 µl of medium
570 was discarded and 25 µl of Cell Titer-GLO reagent was added to each well and the plate was kept on a plate
571 shaker for 15 min at 25°C with shaking at 300 rpm. Luminescence signals were measured in a Spectramax
572 M5 reader (Molecular Devices).
as §1, §2, §3, §4, §5, §6
581 that in DMSO-treated wells as previously described (11).
583 HeLa cells (human cervical adenocarcinoma; genome sequenced (Garvin Institute, Australia) and verified

[1] = tested on: eIF2α phosphorylation in P. falciparum; assay: Western blot for phosphorylated-eIF2α; format: cell-based, Plasmodium falciparum; details: wildtype P. falciparum cultures
Procedure: Synchronous ring-stage YRScyt conditional knockdown line and the aptamer-regulatable control
700 the drug plate. Lowest drug treatment and a lethal dose of chloroquine (200 nM) served as reference
Two guide RNAs (gRNA1: […] and gRNA2:
Ring-stage P. falciparum parasites (Dd2 strain) at 10%
Using a modification of a published procedure (14), the
722 cells were labelled with O-propargyl-puromycin (OPP; 4 µM) for 1 h, washed 3x (PBS +3% serum) and
Flow cytometry was performed
730 hematocrit and 5% parasitemia. The RBC pellet was washed 3 x in PBS + cOmplete. Cells were centrifuged
The wash with PBS + cOmplete and
The pellet was resuspended in Bolt LDS sample
The samples were vortexed for 10 min at room temperature.
Secondary antibodies: goat
740 anti-rabbit IgG-peroxidase (Sigma-Aldrich-A0545; 1:20 000), goat anti-mouse IgG-peroxidase (Chemicon-
Chemiluminescence was detected using the Bio-Rad ChemiDocTM MP imaging
For the human mature YRS construct,
The YRS sequences were codon optimized for E. coli,
The vector was transformed into
PfYRS, PfYRSS234C and HsYRS were induced
Cell pellets were resuspended in 40 mL lysis
Cells were lysed by sonication (Microtip, QSonica)
The supernatant was applied to a 5
757 mL HisTrap HP column (GE Healthcare) and washed with 50 mL binding buffer containing 50 mM Tris-
His-YRS was eluted using a 0-500 mM
The eluted His-YRS was dialyzed overnight at 4°C
760 against 50 mM Tris-HCl, pH 8, 500 mM NaCl, 30 mM imidazole, 1 mM TCEP with the addition of His-
Cleaved His tags from His-YRS and TEV
YRS was further purified by gel filtration using a HiLoad 16/600 Superdex 200 column (GE

H460 = H460 cell viability (ATP content); format: cell-based; details: Homo sapiens, NCI-H460, 72 h, read-out: H460 IC50(72h)
Procedure: as §1, §2, §3, §4, §5, §6, §7, §8, §9

HCT116 = HCT116 cell viability (ATP content); format: cell-based; details: Homo sapiens, HCT-116, 72 h, read-out: HCT116 IC50(72h)
Procedure: as §1, §2, §3, §4, §5, §6, §7, §8, §9

PfYRSS234C = PfYRSS234C (Plasmodium falciparum, UniProt Q8IAR7, S234C); assay: biochemical; format: binding
PfYRSS234C, sequence (Q8IAR7 whole entry S234C): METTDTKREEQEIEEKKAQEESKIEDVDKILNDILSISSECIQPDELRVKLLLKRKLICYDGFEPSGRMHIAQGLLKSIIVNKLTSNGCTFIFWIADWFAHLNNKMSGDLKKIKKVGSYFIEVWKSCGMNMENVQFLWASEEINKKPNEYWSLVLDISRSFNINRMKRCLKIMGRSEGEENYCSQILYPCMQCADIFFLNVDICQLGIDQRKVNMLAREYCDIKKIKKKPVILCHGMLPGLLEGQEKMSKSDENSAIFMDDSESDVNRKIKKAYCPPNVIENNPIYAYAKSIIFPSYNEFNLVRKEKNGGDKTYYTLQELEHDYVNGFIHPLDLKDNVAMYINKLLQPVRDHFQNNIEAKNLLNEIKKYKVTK
Procedure: (§10) 804 An intron was detected in the PftRNATyr sequence, that was not indicated in PlasmoDB. A T7 RNA
(§11) 805 polymerase promoter sequence was added to the 5’ end of the DNA sequence of P. falciparum and H.
(§12) 806 sapiens tRNATyr. This DNA template and its complementary strand were custom-synthesized by Sigma-
(§13) 807 Aldrich. Two oligonucleotides were annealed at 95°C for 5 min and the double-stranded DNA template
(§14) 808 was used for in vitro transcription. The transcription reaction was incubated at 37°C overnight. The reaction
(§15) 809 mixture consists of template DNA, T7 RNA polymerase and NTP mix as per manufacturer's instructions
(§16) 810 (HiScribe™ T7 Quick High Yield RNA Synthesis Kit, NEB). On the following day, the reaction mixture
(§17) 811 was treated with DNase I at 37°C for 15 min. tRNA was purified using RNA clean-up spin columns
(§18) 812 (Monarch® RNA Cleanup Kit, NEB) to remove contaminants from the transcription reaction.
(§19) 814 Differential scanning fluorimetry (DSF)
(§20) 815 PfYRS and HsYRS at 0.1 mg/ml were incubated with various substrates at 37°C for 1-3 h. PfYRS was
(§21) 816 assayed in 25 mM Tris, pH 8, 150 mM NaCl, 5 mM MgCl2 and 1 mM TCEP. HsYRS was assayed in 50
(§22) 817 mM Tris, pH 7.5, 150 mM NaCl, 50 mM KCl, 5 mM MgCl2 and 1 mM TCEP. SYPRO Orange (Sigma-
(§23) 818 Aldrich; 5,000X concentrate in DMSO) was added to the reaction mixture at a final concentration of 2.5X.
(§24) 819 25 µL of the sample was added into each well of a 96-well qPCR plate (Applied Biosystems). The plate
(§25) 820 was sealed and analysed using StepOnePlus Real-Time PCR system (Applied Biosystems). The samples
(§26) 821 were heated from 20°C to 90°C with a 1% continuous gradient. The thermal unfolding curve was plotted
(§27) 822 as the first derivative curve of the raw fluorescence values. The melting temperature (Tm), defined as the
(§28) 823 peak of the first derivative curve, was used to assess the thermal stability of protein-ligand complexes. KD
(§29) 824 values were calculated from DTm using the equation: ln(KD/[L]) = -131.5 x (∆Tm/Tm,apo) - 1.9, where [L]
(§30) 825 is the concentration of ligand and T is the temperature in Kelvin (40). […]

PfYRS [2] = molecular target: T1, PfYRS (Plasmodium falciparum, UniProt Q8IAR7); assay: biochemical; format: binding
T1 sequence (Q8IAR7 entry or part of it): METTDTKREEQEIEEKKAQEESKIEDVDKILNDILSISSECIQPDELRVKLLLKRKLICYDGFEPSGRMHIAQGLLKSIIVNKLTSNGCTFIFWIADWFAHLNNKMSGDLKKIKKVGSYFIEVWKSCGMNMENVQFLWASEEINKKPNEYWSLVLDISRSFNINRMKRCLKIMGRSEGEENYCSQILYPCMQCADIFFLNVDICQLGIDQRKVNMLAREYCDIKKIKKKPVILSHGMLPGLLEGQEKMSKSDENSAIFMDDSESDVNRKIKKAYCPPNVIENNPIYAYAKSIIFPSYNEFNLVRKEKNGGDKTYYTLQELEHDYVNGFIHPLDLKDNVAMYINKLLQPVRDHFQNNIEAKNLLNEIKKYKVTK
Procedure: as §10, §11, §12, §13, §14, §15, §16, §17, §18, §19, §20, §21, §22, §23, §24, §25, §26, §27, §28, §29, §30

HsYRS = molecular target: T2, HsYRS (Homo sapiens, UniProt P54577); assay: Tyrosine acylation of cognate tRNATyr by HsYRS; format: biochemical; details: YRS 0.25 μM, ATP 10 μM, 37°C 1 h
T2 construct: made in house; host or cells: E. coli BL21(DE3), pET-11a
T2 sequence (P54577 1-364): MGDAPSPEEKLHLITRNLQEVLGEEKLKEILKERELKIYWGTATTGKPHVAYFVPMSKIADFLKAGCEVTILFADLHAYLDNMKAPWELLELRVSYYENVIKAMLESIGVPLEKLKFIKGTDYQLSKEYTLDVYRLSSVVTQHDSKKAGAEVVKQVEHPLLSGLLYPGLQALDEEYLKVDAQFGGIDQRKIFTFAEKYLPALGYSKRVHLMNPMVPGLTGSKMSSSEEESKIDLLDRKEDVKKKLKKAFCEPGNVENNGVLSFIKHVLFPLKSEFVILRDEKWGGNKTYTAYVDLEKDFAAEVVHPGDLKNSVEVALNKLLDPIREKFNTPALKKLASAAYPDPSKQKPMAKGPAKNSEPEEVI

PfYRS [3] = molecular target: T1, PfYRS; assay: Tyrosine acylation of cognate tRNATyr by PfYRS; format: biochemical

| SMILES | IC50 (H1650) [nM] | IC50 (P. falciparum (3D7)) [nM] | eIF2α phosphorylation [1] | IC50 (H460) [nM] | IC50 (HCT116) [nM] | Kd (PfYRSS234C) [nM] | Tm (PfYRSS234C; PfYRSS234C 2.3 μM, after incubation at 37°C for 3 h) [oC] | Kd (PfYRS [2]) [nM] | Tm (PfYRS [2]; PfYRS 2.3 μM, after incubation at 37°C for 3 h) [oC] | DTm (PfYRS [2]; PfYRS, versus apo) [oC] | IC50 (HsYRS) [nM] | IC50 (PfYRS [3]) [nM] |
| --- | --- | --- | --- | --- | --- | --- | --- | --- | --- | --- | --- | --- |
| Nc1ncnc2c1ncn2[C@@H]1O[C@H](COS(N)(=O)=O)[C@@H](O)[C@H]1O [AMS, adenosine 5′-sulfamate, reference compound] | 140 | 1.8 | triggers eIF2α phosphorylation | 25 ± 7 | 26 |  |  |  |  |  |  |  |
| Nc1ncnc2c1c(OC(F)F)nn2C1OC(COS(=O)(=O)NC(=O)C(N)Cc2ccc(O)cc2)C(O)C1O (stereo not drawn) [ML901-Tyr] |  |  |  |  |  | 3.9 | 59.7 ± 0.3 | 0.7 | 65.1 ± 0.1 | 14.9 | 23000 | 1600 |
